Assay results taken from patent US20200399642A1, “METHODS AND COMPOSITIONS FOR TREATING AND PREVENTING METASTATIC TUMORS” (IMMUNE PHARMACEUTICALS, INC., priority 2017, published 2020).
Read-outs that look alike come from different tables or passages of the source.

What was measured:
CD11b+Gr1+ myeloid cells = settings: WT mice, HDC 24 hours before B16F10 inoculation
Method: (§2) For assessment of the impact of NOX2 inhibition on immune parameters during the early phase of tumor progression, mice received HDC at 1,500 μg/mouse or PBS (control) 1 day before the inoculation of B16F10 cells followed by dissection of lungs at 30 minutes or 24 hours after tumor cell inoculation as shown in FIG. 2A.
(§3) Lung tissues were dissociated into single cells by combining enzymatic degradation of extracellular matrix with mechanical dissociation using gentle MACS Technology (Miltenyi Biotech) based on instructions provided by the manufacturer.
The following fluorochrome-labeled antimouse mAbs were purchased from BD Biosciences: anti-CD45 (30-F11), anti-CD11c (HL3), anti-IaIe (2G9), anti-CD3 (145-2311), anti-CD4 (RM4-5), anti-CD8 (53-6.7), anti-NK1.1 (PK136), anti-CD19 (1D3), anti-CD11b (M1/70), anti-Gr1 (RB6-8C5), anti-CD40 (3/23), and anti-Ly6C (AL-21). Anti-CD33 (29A1.4) was from Ebiosciences; anti-F4/80 (BM8) and anti-CD69 (H1.2F3) were from BioLegend. LIVE/DEAD Fixable Yellow Dead Cell Stain Kit or DAPI (both from Invitrogen) were used as cell viability markers in flow cytometry analyses. A minimum of 100,000 gated live cells were collected on a four-laser BD LSRFortessa (405, 488, 532, and 640 nm). Data were analyzed using FACSDiva Version 8.0.1 software (BD Biosciences).

B16F1 cells = settings: 200,000 cells in WT, 300,000 in Nox2-/- mice; 3 weeks
Method: (§1) C57BL/6 mice were obtained from The Charles River Laboratories. B6.129S6-Cybb^tm1Din(Nox2^−/− or Nox2-KO) mice that lack the myeloid gp91^phox subunit NOX2 and, thus, a functional ROS-forming NOX2 were obtained from The Jackson Laboratory. […] Naïve C57BL/6, Nox2-KO, and Ifng-KO mice (6-12 weeks of age) were treated intraperitoneally (i.p.) with PBS (control), HDC (Sigma, 1,500 μg/mouse), IL15 (0.04 μg/mouse), alone or combined, on the day before, the day after, and 3 days after intravenous (i.v.) inoculation of B16F10 cells (5×10^4-15×10^4 cells/mouse) or B16F1 cells (20×10^4-30×10^4 cells/mouse). Three weeks after tumor inoculation, mice were euthanized by cervical dislocation followed by harvesting of lungs and spleens. Lung metastasis was determined by counting visible pulmonary metastatic foci under a light microscope. The experimental design is outlined in FIG. 1A.

NK cells = settings: WT mice, 3 weeks after tumor cell inoculation; % of live CD45+ cells
Method: as §1

[1] = tested on: ROS production of WT lung cells; settings: in vitro, HDC 10-1,000 μmol/L added 5 minutes before WKYMVm
Method: (§4) Superoxide anion production was determined by use of the isoluminol-electrogenerated chemiluminescence technique as described elsewhere. Briefly, single-cell suspensions of lungs were diluted to 10^7 cells/mL in Krebs-Ringer glucose buffer supplemented with isoluminol (10 mg/mL; Sigma-Aldrich) and horseradish peroxidase (HRP, 4 U/mL, Boehringer) and added to 96-well plates that were incubated at 37° C. Phorbol myristate acetate (PMA, 5×10^−8 M, Sigma-Aldrich) or the formyl peptide receptor agonist Trp-Lys-Tyr-Met-Val-D-Met (WKYMVm) (10^−5 M, Tocris Bioscience) were added for induction of ROS production. Light emission was recorded continuously using a FLUOstar Omega plate reader (BMG). In some experiments, HDC (10-1,000 μmol/L, final concentrations) was added 5 minutes prior to the addition of WKYMVm.

lung NK cells = experiment: IFNγ production ex vivo in cocultures of lung cells and B16 cells (ELISA); set-up: species or system mouse; settings: WT mice treated with HDC in vivo; lungs 30 minutes after B16F10 inoculation; coculture with B16 cells
Method: Mice were pretreated with HDC (1,500 μg) or PBS on the day before i.v. inoculation of B16F10 cells. Thirty minutes after tumor cell inoculation mice were sacrificed and single-cell lung cell suspensions were prepared. Lung cells were cocultured overnight with B16 cells (500,000 cells/mL) in flat bottom 96-well plates at effector:target cell ratios of 1:1 to 50:1. Supernatants were collected after 24 hours and the IFNγ content was determined by ELISA (Mouse IFNγ DuoSet ELISA, R&D Systems).

[2] = tested on: ROS formation of lung cell suspensions; settings: mice pretreated with HDC the day before B16 inoculation; PMA; 30 minutes and 24 hours
Method: as §2, §3, §4

B16F10 cells = experiment: Lung metastasis after i.v. inoculation of B16F10 melanoma cells; type: in vivo, mouse; settings: for number of lung metastases: 3 weeks
Method: as §1
Gr1^+ cells were depleted by i.p. injections of 400 μg anti-Gr1 antibody (BioXCell, Clone RB6-8C5) 2 days before B16 cell inoculation. […] NK cells were depleted by i.p. injections of 250 μg anti-NK1.1 antibody (BioXCell, Clone PK136) 4 days and 2 days before B16F10 cell inoculation.
Spleens were harvested from WT C57BL/6 mice and single-cell suspensions were prepared. Splenocytes were enriched for NK cells by passage through nylon wool columns (Polysciences). NK cells were then negatively selected using an NK-cell isolation kit II (Miltenyi Biotech) according to the manufacturer's instructions to a purity of >70%. Five million enriched NK cells were injected i.v. 12 hours before inoculation of B16F10 cells. WT NK cells in Ifng^−/− mice were detected 2 days after adoptive transfer by collecting peripheral blood followed by DNA extraction and PCR. The primer pair used for detection of WT Ifng was 5′ […] 3′ (SEQ ID NO:02) and 5′ […] 3′ (SEQ ID NO:03). For detection of the disrupted IFNγ gene (Ifng−/−) the primer pair 5′ […] 3′ (SEQ ID NO:04) and 5′ […] 3′ (SEQ ID NO:05) was used.

melanoma = settings: other melanoma models; cited from earlier work
[3] = tested on: xenografted human melanoma cells; settings: immunodeficient mice; cited from earlier work
[4] = tested on: B-RAF- and K-RAS-induced lung cancer; settings: mouse models of B-RAF- and K-RAS-induced lung cancer; cited from earlier work
murine melanoma cells = settings: in vivo administration; cited from earlier work
[5] = Nox2-KO mice, 150,000 B16F10 cells i.v., i.p. treatment days -1, 1, 3
[6] = WT mice, 100,000 B16F10 cells i.v., i.p. treatment days -1, 1, 3 (HDC 1,500 μg/mouse, IL15 0.04 μg/mouse)

Row | Molecule | subcutaneous growth of EL-4 thymoma tumors (EL-4 thymoma tumors; Nox2-KO mice) | subcutaneous growth of EL-4 thymoma tumors (EL-4 thymoma tumors; WT mice) | degree of influx of myeloid cells into lungs (CD11b+Gr1+ myeloid cells) | lung metastasis formation by B16F1 (B16F1 cells) | NK-cell counts in lungs (NK cells) | ROS formation from WT lung cells [1] | IFNγ produced ex vivo by lung NK cells (lung NK cells) | ROS formed ex vivo in lung cell suspensions [2] | lung metastasis (B16F10 cells; Gr1+-depleted WT mice, B16F10) | antimetastatic efficacy of HDC (B16F10 cells; Ifng-KO mice after adoptive transfer of IFNγ-producing WT NK cells) | antimetastatic efficacy of HDC (B16F10 cells; Ifng-KO mice after adoptive transfer of Ifng-KO NK cells) | melanoma metastasis (B16F10 cells; Ifng-KO mice, B16F10) | number of lung metastases (B16F10 cells; [5]) | number of lung metastases (B16F10 cells; [6]) | melanoma metastasis (B16F10 cells; animals depleted of NK cells (anti-NK1.1), WT and Nox2-/-, B16F10) | lymph node metastasis (melanoma) | metastasis of xenografted human melanoma cells [3] | tumor progression [4] | tumorigenicity of murine melanoma cells (murine melanoma cells)
1 | Cl.Cl.NCCc1c[nH]cn1 [HDC, histamine dihydrochloride] | but not in Nox2-KO mice | reduces the subcutaneous growth | did not alter | NOX2-dependent, antimetastatic effect | increased NK-cell counts in lungs | dose-dependently suppressed | higher concentrations of IFNγ | reduced | did not affect metastasis | significantly restored the antimetastatic efficacy | but not the transfer of Ifng-KO NK cells | did not reduce melanoma metastasis | not observed | decreased the number of lung metastases | did not inhibit melanoma metastasis | – | – | – | –
2 | CC(=O)N[C@@H](CS)C(=O)O [N-acetyl-cysteine] | – | – | – | – | – | – | – | – | – | – | – | – | – | – | – | enhances lymph node metastasis | accelerates the metastasis | accelerates tumor progression | reduces the tumorigenicity
3 | IL15: NK cell-activating cytokine IL15 | – | – | – | – | – | – | – | – | – | – | – | – | exerted antimetastatic activity | exerted antimetastatic activity | – | – | – | – | –
